In patent USRE39616E1, “Aminoindan derivatives” (priority 1996, dated 2007):
Where a name gives a salt, the structure may show the parent alone. Read-outs that look alike come from different tables or passages of the source.

Experiments:
mice = settings: mice, within 6 hours after administration
Method: Therapeutic Ratio was calculated as LD50 divided by ED50 of ex vivo acetylcholine esterase inhibition.

whole brain AChE = molecular target: T1, whole brain AChE (Mus musculus, UniProt P21836); settings: for AChE Inhibition Ex vivo ED50 (AC): mice, whole brain, at peak of activity; for AChE Inhibition Time to peak activity t / AChE Inhibition Time to return to 50% of peak t: mouse, in vivo
T1 sequence (P21836 32-614): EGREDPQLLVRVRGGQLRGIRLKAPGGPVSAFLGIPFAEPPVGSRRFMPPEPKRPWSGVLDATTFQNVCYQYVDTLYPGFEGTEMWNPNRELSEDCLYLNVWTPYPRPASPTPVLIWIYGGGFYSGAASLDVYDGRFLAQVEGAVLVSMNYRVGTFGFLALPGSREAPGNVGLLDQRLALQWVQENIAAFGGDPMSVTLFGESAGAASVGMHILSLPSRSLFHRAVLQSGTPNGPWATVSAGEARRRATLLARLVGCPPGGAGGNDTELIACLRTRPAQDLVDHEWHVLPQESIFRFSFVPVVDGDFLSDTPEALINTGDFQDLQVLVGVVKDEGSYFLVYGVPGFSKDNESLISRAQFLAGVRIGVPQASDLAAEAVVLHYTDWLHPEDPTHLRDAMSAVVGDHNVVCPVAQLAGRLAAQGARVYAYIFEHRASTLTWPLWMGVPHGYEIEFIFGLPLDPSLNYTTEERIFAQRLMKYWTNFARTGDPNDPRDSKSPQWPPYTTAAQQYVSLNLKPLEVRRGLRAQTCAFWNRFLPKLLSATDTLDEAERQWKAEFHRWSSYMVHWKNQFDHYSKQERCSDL
Method: Test drugs or saline were administered sub-cutaneously to male mice (Sabra strain, 28-35 g). […] The mice were sacrificed 15, 30, 50, 70, 90, 120 or 180 minutes after drug administration, the brains rapidly removed (minus cerebellum), weighed and homogenized in 0.1 M phosphate buffer, pH 8.0, containing Triton (1 mg/100 g tissue) and centrifuged to remove cell debris. Aliquots (25 μl) of the supernatant were then incubated with acetylthiocholine and DTNB. AChE activity was measured as described above. The % inhibition of whole brain AChE by each dose of drug was calculated by comparison with enzyme activity from 3 saline treated control mice run at the same time.

MAO-A [1] = molecular target: T2, MAO-A (Rattus norvegicus, UniProt P21396); experiment: Inhibition of MAO activity in vitro, 5-HT as substrate; assay type: biochemical; design: The MAO enzyme source was a homogenate of rat brain in 0.3M sucrose; from tissue; host or cells: rat brain homogenate, 600 g supernatant; settings: 5-HT substrate
T2 sequence (P21396 1-526): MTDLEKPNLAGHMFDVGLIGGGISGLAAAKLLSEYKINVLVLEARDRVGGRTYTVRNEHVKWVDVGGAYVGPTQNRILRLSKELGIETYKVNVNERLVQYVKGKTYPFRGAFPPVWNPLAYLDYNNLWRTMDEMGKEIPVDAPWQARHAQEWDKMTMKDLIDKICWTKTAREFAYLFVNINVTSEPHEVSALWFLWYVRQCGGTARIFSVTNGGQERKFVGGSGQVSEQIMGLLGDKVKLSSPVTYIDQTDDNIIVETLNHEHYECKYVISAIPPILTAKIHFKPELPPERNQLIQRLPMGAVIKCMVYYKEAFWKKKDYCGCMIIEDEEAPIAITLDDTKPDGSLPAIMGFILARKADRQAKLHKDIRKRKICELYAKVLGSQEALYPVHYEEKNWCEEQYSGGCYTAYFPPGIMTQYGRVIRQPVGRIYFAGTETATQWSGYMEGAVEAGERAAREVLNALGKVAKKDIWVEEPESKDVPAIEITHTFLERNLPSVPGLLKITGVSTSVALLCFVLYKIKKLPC
Method: (§1) Substrate concentrations used were 50 μM (PEA) and 1 mM (5-HT).

[2] = molecular target: T3, Human erythrocyte acetylcholinesterase (Homo sapiens, UniProt P22303); experiment: biochemical; assay type: biochemical
T3 construct: Human erythrocyte acetylcholinesterase (type XIII, Sigma Israel); purchased Sigma Israel type XIII; host or cells: human erythrocytes
Method: Human erythrocyte acetylcholinesterase (type XIII, Sigma Israel), was prepared in a stock solution of 1 U/ml, containing Triton (1%) and bovine serum albumin (0.05%) in phosphate buffer (pH 8). The enzyme (0.05U) was incubated with 3-5 different concentrations of test compound (in triplicate) for periods of from 15 to 60 minutes at 37° C. […] The percentage inhibition of AChE by each concentration of drug is calculated by comparison with that of enzyme in the absence of drug.

[3] = tested on: mice, hypobaric hypoxic model; experiment: animal or person; assay type: in vivo; settings: for response vs control in vivo at 0.2 mg/kg: 0.2 mg/kg sc
From the text: A 12 liter desiccator (desiccator A) and a 2.5 liter desiccator (desiccator B) were separately connected to a vacuum pump. Desiccator B was disconnected and allowed to equilibrate with room air whilst desiccator A was evacuated to a pressure of 100 mmHg. Four male ICR albino mice (22-28 g) were placed in desiccator B. Desiccator B was then closed to room air and connected to desiccator A. The pressure inside desiccator B was monitored using a mercury manometer and at the point were the pressure in desiccator B reached 200 mmpg (usually within 14 seconds), the two desiccators were disconnected from the vacuum pump and the pump switched off. The survival time from the moment of induction of hypoxia to the time of cessation of respiration was recorded for each mouse for a maximum of 15 minutes after which time room air was reintroduced to desiccator B. Survivors were monitored for signs of lethargy or vitality.
Effect of drug treatment was assessed as the percent of the survival time of the drug treated group with respect to the saline injected or vehicle injected control group. […] The effect of each dose of test drug was determined in duplicate i.e. two groups of 4 mice.
Positive reference drugs were sodium pentobarbital at a dose of 40 mg/kg, and diazepam 10 mg/kg given 0.5 h prior to hypoxia, physostigmine 0.2 and 0.4 mg/kg and neostigmine 0.2 mg/kg given sc 30 min before hypoxia. Methyl atropine 1 mg/kg was given sc. 10 min. before physostigmine.
Test drugs were dissolved in 0.9% saline, and injected sc. in the nip of the neck at a dose in accordance with body weight, 60-90 min. before hypoxia. The volume of injection was 0.2-0.3 mL per mouse (10 mL/kg). The initial dose was about one third of the reported LD50 for acetylcholine esterase inhibition. If no protection could be obtained, the dose was further increased to the nearest non-toxic dose. In case of protection, the dose was further reduced in an attempt to locate the “protective” dose range.

MAO-B = molecular target: T4, MAO-B (Mus musculus, UniProt Q8BW75); experiment: Inhibition of MAO activity ex vivo (brain); assay type: in vivo, mice; settings: mice, brain tissue
T4 construct: from tissue; host or cells: mouse brain
T4 sequence (Q8BW75 1-520): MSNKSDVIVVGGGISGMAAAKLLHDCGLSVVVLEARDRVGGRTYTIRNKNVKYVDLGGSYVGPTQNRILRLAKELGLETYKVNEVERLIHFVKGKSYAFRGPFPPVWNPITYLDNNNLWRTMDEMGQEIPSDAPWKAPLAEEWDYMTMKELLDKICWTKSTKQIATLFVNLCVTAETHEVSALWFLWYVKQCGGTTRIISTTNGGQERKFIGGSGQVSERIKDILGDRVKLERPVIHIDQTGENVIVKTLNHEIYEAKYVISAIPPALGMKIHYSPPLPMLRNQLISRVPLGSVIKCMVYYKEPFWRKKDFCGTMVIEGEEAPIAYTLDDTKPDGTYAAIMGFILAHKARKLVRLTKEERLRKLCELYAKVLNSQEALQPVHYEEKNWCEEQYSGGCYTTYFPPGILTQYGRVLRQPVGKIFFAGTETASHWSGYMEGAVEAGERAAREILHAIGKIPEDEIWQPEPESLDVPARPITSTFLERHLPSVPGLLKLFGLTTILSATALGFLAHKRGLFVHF
Method: as §1
(§2) Male Sabra mice, weighing 45-50 g were injected with test compound solutions (prepared in 0.9% saline). Each dose was administered to two or three mice. The mice were sacrificed two hours after drug administration or at a time corresponding to the peak AChE inhibition time (see Table 11). The brain and liver were rapidly dissected and stored in appropriate vials on ice. The tissues were weighed, diluted to ½ in sucrose 0.3M and stored at −20° C. before performance of the MAO assay described above. The results given in Table 11 relate to measurements made on brain tissue only.

MAO-A [4] = molecular target: T5, MAO-A (Mus musculus, UniProt Q64133); experiment: Inhibition of MAO activity ex vivo (brain); assay type: in vivo, mice; settings: mice, brain tissue
T5 construct: from tissue; host or cells: mouse brain
T5 sequence (Q64133 1-526): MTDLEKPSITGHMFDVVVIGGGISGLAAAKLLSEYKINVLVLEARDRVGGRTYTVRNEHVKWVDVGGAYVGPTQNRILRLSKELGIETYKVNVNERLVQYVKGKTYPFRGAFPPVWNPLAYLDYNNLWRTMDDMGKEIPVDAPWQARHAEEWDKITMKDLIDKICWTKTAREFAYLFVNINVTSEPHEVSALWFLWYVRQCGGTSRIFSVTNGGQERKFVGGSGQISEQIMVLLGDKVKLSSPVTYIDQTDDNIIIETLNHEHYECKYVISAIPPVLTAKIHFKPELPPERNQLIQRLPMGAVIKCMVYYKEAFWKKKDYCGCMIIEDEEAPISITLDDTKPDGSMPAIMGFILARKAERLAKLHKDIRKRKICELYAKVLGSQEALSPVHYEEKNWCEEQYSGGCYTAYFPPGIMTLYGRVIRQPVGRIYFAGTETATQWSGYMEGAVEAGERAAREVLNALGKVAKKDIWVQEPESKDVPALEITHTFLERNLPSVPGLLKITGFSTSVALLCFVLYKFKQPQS
Method: as §1, §2

[5] = human erythrocyte AChE, at time of peak activity, read-out: AChE Inhibition In vitro IC50
[6] = Mus musculus, 30 min before hypoxia, read-out: Protection (survival time)
[7] = read-out: AChE Inhibition In vitro IC50

T3 sequence (P22303 32-617 isoform P22303-2 limits assumed): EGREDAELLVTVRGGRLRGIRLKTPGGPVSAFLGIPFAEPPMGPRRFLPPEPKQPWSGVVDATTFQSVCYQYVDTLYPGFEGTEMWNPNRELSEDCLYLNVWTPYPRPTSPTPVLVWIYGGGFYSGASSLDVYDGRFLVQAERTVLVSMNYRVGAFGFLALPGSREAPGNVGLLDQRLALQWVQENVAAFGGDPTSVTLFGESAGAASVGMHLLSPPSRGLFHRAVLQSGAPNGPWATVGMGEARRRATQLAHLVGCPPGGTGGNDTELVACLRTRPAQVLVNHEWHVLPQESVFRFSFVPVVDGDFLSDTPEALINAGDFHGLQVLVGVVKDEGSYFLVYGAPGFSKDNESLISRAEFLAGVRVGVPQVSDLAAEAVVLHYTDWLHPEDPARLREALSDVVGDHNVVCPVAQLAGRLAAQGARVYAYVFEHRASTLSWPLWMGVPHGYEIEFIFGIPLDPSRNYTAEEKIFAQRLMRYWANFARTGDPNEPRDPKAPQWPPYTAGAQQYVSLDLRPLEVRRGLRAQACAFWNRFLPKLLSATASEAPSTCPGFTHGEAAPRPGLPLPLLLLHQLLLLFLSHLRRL

## CCN(C)C(=O)Oc1ccc2c(c1)C(N)CC2 (stereo not drawn) [Compound 3, 6-(N-Me,N-Et Carbamyloxy) aminoindan HCl]
mice
  Acute Toxicity LD50 (LD): 950 µmol/kg
Whole brain AChE
  AChE Inhibition Ex vivo ED50 (AC): 46.3 µmol/kg
  AChE Inhibition Time to peak activity t: 60 to 90 min
  AChE Inhibition Time to return to 50% of peak t: >180 min
MAO-A [1]; MAO-A Inhibition In vitro IC50, rat brain homogenate
  IC50: 12.6 µM

## CNC1CCc2cccc(OC(=O)N(C)C)c21 (stereo not drawn) [Compound 9]
mice
  Acute Toxicity LD50 (LD): 93 µmol/kg
Whole brain AChE
  AChE Inhibition Ex vivo ED50 (AC): 19 µmol/kg
  AChE Inhibition Time to peak activity t: 15 min

## C#CCNC1CCc2ccc(OC(=O)N(CC)CCCC)cc21 (stereo not drawn) [Compound 83]
[2]; [5]
  IC50: 80 µM

## CN(C)C(=O)Oc1cccc([N+](C)(C)C)c1 [neostigmine, reference compound]
[3]; [6]
  response vs control in vivo at 0.2 mg/kg: 141 ± 32%

## CN(C(=O)Oc1ccc2c(c1)C(N)CC2)C1CCCCC1 (stereo not drawn) [Compound 17]
[2]; [7]
  IC50: 4 µM

## C#CCNC1CCc2cccc(OC(=O)N(C)CC)c21 (stereo not drawn) [Compound 33]
[2]; AChE Inhibition In vitro IC50
  IC50: 540 µM
MAO-B
  MAO-B Inhibition Ex vivo ED50: 1000 µmol/kg
MAO-A [4]
  MAO-A Inhibition Ex vivo ED50: >>1200 μmoles/kg

## C#CCNC1CCc2ccc(OC(=O)N(C)CC)cc21 (stereo not drawn) [Compound 60]
[2]; AChE Inhibition In vitro IC50
  IC50: 42 µM

## C#CCN(C)C1CCc2ccc(OC(=O)N(C)CC)cc21 (stereo not drawn) [Compound 30]
[2]; [7]
  IC50: 1300 µM

## C#CCNC1CCc2ccc(OC(=O)N(C)CCCC)cc21 (stereo not drawn) [Compound 86]
[2]; [7]
  IC50: 10.5 µM

## C#CCNC1CCc2cccc(OC(=O)N(C)CCC)c21 (stereo not drawn) [Compound 28]
[2]; [5]
  IC50: 100 µM

## C#CCNC1CCc2ccc(OC(=O)N(C)CCCC)cc21 (stereo not drawn) [Compound 87]
[2]; [7]
  IC50: 9.1 µM

## CNC(=O)Oc1ccc2c(c1)[C@]1(C)CCN(C)[C@@H]1N2C [physostigmine, reference compound]
[3]; [6]
  response vs control in vivo at 0.2 mg/kg: 453 ± 222%
[3]; Mus musculus, 0.4 mg/kg sc, 30 min before hypoxia, read-out: Protection (survival time)
  response vs control in vivo at 0.4 mg/kg: 552 ± 210%

## C#CCNC1CCc2ccc(OC(=O)NCC)cc21 (stereo not drawn) [Compound 56]
[2]; [5]
  IC50: 11.5 µM
Whole brain AChE
  AChE Inhibition Ex vivo ED50 (AC): 180 µmol/kg

## CCCC(C)C1(CC)C(=O)N=C([O-])NC1=O.[Na+] (stereo not drawn) [Nembutal]
[3]; 40 mg/kg, 30 min before hypoxia
  Protection (survival time): 253 ± 200 % of control

## C#CCNC1CCc2ccc(OC(=O)N(C)C)cc21 (single isomer, unassigned) [Compound 54]
MAO-B
  MAO-B Inhibition Ex vivo ED50: >100 µmol/kg
MAO-A [4]
  MAO-A Inhibition Ex vivo ED50: >100 µmol/kg

## C#CCNC1CCc2ccc(OC(=O)N(CC)C3CCCCC3)cc21 (stereo not drawn) [Compound 85]
[2]; [5]
  IC50: 17 µM
Whole brain AChE
  AChE Inhibition Ex vivo ED50 (AC): >100 µmol/kg

## C#CCNC1CCc2ccc(OC(=O)N(C)C)cc21 (single isomer, unassigned) [Compound 55]
MAO-B
  MAO-B Inhibition Ex vivo ED50: >100 µmol/kg
MAO-A [4]
  MAO-A Inhibition Ex vivo ED50: >100 µmol/kg

## CN(C)C(=O)Oc1ccc2c(c1)C(N(C)C)CC2 (stereo not drawn) [Compound 12]
[3]; Mus musculus, sc, read-out: Protection (survival time), 7 mg/kg sc, 60 min before hypoxia
  response vs control in vivo at 7 mg/kg: 248 ± 97%
[3]; Mus musculus, sc, read-out: Protection (survival time), 10 mg/kg sc, 60 min before hypoxia
  response vs control in vivo at 10 mg/kg: 386 ± 238%
[3]; Mus musculus, sc, read-out: Protection (survival time), 15 mg/kg sc, 60 min before hypoxia
  response vs control in vivo at 15 mg/kg: 649 ± 221%
[3]; Mus musculus, sc, read-out: Protection (survival time), 20 mg/kg sc, 60 min before hypoxia
  response vs control in vivo at 20 mg/kg: 725 ± 128%
mice
  Acute Toxicity LD50 (LD): <20 µmol/kg
Whole brain AChE
  AChE Inhibition Ex vivo ED50 (AC): 8.0 µmol/kg
  AChE Inhibition Time to peak activity t: 15 min

## CCN(C)C(=O)Oc1cccc2c1C(N)CC2 (stereo not drawn) [Compound 5]
MAO-B
  MAO-B Inhibition Ex vivo ED50: >>277 μmoles/kg
MAO-A [4]
  MAO-A Inhibition Ex vivo ED50: >>277 μmoles/kg
mice
  Acute Toxicity LD50 (LD): 840 µmol/kg
Whole brain AChE
  AChE Inhibition Ex vivo ED50 (AC): 85.0 µmol/kg
  AChE Inhibition Time to peak activity t: 60 min
  AChE Inhibition Time to return to 50% of peak t: >120 min

## CCCN(C)C(=O)Oc1ccc2c(c1)C(N)CC2 (stereo not drawn) [Compound 2]
[2]; [7]
  IC50: 7.3 µM
MAO-A [1]; rat brain homogenate, read-out: MAO-A Inhibition In vitro IC50
  IC50: 32 µM
